# What was measured:
# Assay type in all cases: in vivo
# Matricaria chamomilla = assay: greenhouse post-emergence treatment, MATCH; settings: 21 DAT, topramezone solo 6 gai/ha
# In short: (§1)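 Foliar application to greenhouse-grown plants 3–15 cm tall in humus-containing loamy sand; response assessed on a 0–100 scale after 2–4 weeks, with Colby's E=X+Y−(X·Y/100) as the additive expectation.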
# Digitaria sanguinalis = assay: greenhouse post-emergence treatment, DIGSA; settings: 21 DAT, topramezone solo 3 gai/ha
# In short: (§2)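 Scoring used a 0 to 100 scale, with 100 denoting no emergence or full destruction of at least the above-ground parts, recorded within a 2 to 4 week test period. Test plants grew in loamy sand containing about 3.0% humus at 10-25° C. or 20-35° C., after direct sowing or transplanting, and received water-based treatments post-emergence.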
# Lolium multiflorum = assay: greenhouse post-emergence treatment, LOLMU; settings: 21 DAT
# In short: as §2
# Echinocloa crus-galli = assay: greenhouse post-emergence treatment, ECHCG; settings: ECHCG, 21 DAT
# Procedure: (§3) The culture containers used were plastic pots containing loamy sand with approximately 3.0% of humus as substrate. The seeds of the test plants were sown separately for each species.
# (§4) For the post-emergence treatment, the test plants were grown to a plant height of from 3 to 15 cm, depending on the plant habit, and only then treated with the active compounds which had been suspended or emulsified in water. To this end, the test plants were either sown directly, and grown in the same containers, or they were first grown separately as seedlings and transplanted into the test containers a few days prior to treatment.
# (§5) Depending on the species, the plants were kept at 10-25° C. and 20-35° C., respectively.
# (§6) The test period extended over 2 to 4 weeks. During this time, the plants were tended and their response to the individual treatments was evaluated.
# (§7) Evaluation was carried out using a scale from 0 to 100. 100 means no emergence of the plants, or complete destruction of at least the above-ground parts, and 0 means no damage or normal course of growth. A good herbicidal activity is given at values of at least 70, and very good herbicidal activity is given at values of at least 85.
# (§8) The respective stated components A and B, and if appropriate, C were formulated as a 10% by weight strength emulsion concentrate and, with addition of the amount of solvent system, introduced into the spray liquor used for applying the active compound. In the examples, the solvent used was water.
# (§9) In the examples below, using the method of S. R. Colby (1967) “Calculating synergistic and antagonistic responses of herbicide combinations”, Weeds 15, p. 22ff., the value E, which is expected if the activity of the individual active compounds is only additive, was calculated. E=X+Y−(X·Y/100) where X=effect in percent using herbicide A at an application rate a; • Y=effect in percent using herbicide B at application rate b; • E=expected effect (in %) of herbicide A+herbicide B at application rates a+b.
# Apera spica-venti = assay: greenhouse post-emergence treatment, APESV; settings: 21 DAT
# Procedure: as §3, §4, §5, §6, §7, §8, §9
# Poa annua = assay: greenhouse post-emergence treatment, POAAN; settings: 21 DAT
# Procedure: as §3, §4, §5, §6, §7, §8, §9
# Papaver rhoeas = assay: greenhouse post-emergence treatment, PAPRH; settings: 21 DAT
# In short: as §1
# Polygonum convolvulus = assay: greenhouse post-emergence treatment, POLCO; settings: 21 DAT
# Procedure: as §3, §4, §5, §6, §7, §8, §9
# Alopecurus myosuroides = assay: greenhouse post-emergence treatment, ALOMY; settings: 21 DAT
# In short: as §2
# Bromus sterilis = assay: greenhouse post-emergence treatment, BROST; settings: 21 DAT
# In short: as §2
# Ambrosia elatior = assay: greenhouse post-emergence treatment, AMBEL; settings: 21 DAT, topramezone solo 6 gai/ha
# Procedure: as §3, §4, §5, §6, §7, §8, §9
# Setaria viridis = assay: greenhouse post-emergence treatment, SETVI; settings: 21 DAT, topramezone solo 3 gai/ha
# In short: as §2
structure (smiles),measurement,setting,value
Cc1c(C(=O)c2cnn(C)c2O)ccc(S(C)(=O)=O)c1C1=NOCC1 [topramezone],% activity,Matricaria chamomilla,30%
same,% activity,Digitaria sanguinalis,75%
same,% activity,Lolium multiflorum; topramezone solo 3 gai/ha,0%
same,% activity,Lolium multiflorum; topramezone solo 6 gai/ha,0%
same,% activity,Lolium multiflorum; topramezone solo 12 gai/ha,10%
same,% activity,Lolium multiflorum; topramezone solo 24 gai/ha,20%
same,% activity,"Lolium multiflorum; LOLMU, solo topramezone (SC 336 g/l) 6 gai/ha",0%
same,% activity,Echinocloa crus-galli; solo topramezone (SC 336 g/l) 3 gai/ha,70%
same,% activity,Echinocloa crus-galli; solo topramezone (SC 336 g/l) 12 gai/ha,98%
same,% activity,Echinocloa crus-galli; solo topramezone (SC 336 g/l) 24 gai/ha,98%
same,% activity,Apera spica-venti; topramezone solo 3 gai/ha,0%
same,% activity,Apera spica-venti; topramezone solo 6 gai/ha,0%
same,% activity,Apera spica-venti; topramezone solo 12 gai/ha,30%
same,% activity,Poa annua; topramezone solo 3 gai/ha,0%
same,% activity,Poa annua; topramezone solo 6 gai/ha,0%
same,% activity,Poa annua; topramezone solo 12 gai/ha,0%
same,% activity,Poa annua; topramezone solo 24 gai/ha,0%
same,% activity,"Poa annua; POAAN, solo topramezone (SC 336 g/l) 3 gai/ha",0%
same,% activity,"Poa annua; POAAN, solo topramezone (SC 336 g/l) 6 gai/ha",0%
same,% activity,"Poa annua; POAAN, solo topramezone (SC 336 g/l) 12 gai/ha",0%
same,% activity,"Poa annua; POAAN, solo topramezone (SC 336 g/l) 24 gai/ha",0%
same,% activity,Papaver rhoeas; topramezone solo 12 gai/ha,20%
same,% activity,Papaver rhoeas; topramezone solo 24 gai/ha,40%
same,% activity,"Papaver rhoeas; PAPRH, solo topramezone (SC 336 g/l) 3 gai/ha",0%
same,% activity,"Papaver rhoeas; PAPRH, solo topramezone (SC 336 g/l) 6 gai/ha",0%
same,% activity,Polygonum convolvulus; topramezone solo 3 gai/ha,0%
same,% activity,Polygonum convolvulus; topramezone solo 6 gai/ha,30%
same,% activity,Polygonum convolvulus; topramezone solo 12 gai/ha,30%
same,% activity,Polygonum convolvulus; topramezone solo 24 gai/ha,85%
same,% activity,Alopecurus myosuroides; topramezone solo 3 gai/ha,0%
same,% activity,Alopecurus myosuroides; topramezone solo 6 gai/ha,0%
same,% activity,Alopecurus myosuroides; topramezone solo 12 gai/ha,0%
same,% activity,Alopecurus myosuroides; topramezone solo 24 gai/ha,10%
same,% activity,"Alopecurus myosuroides; ALOMY, solo topramezone (SC 336 g/l) 3 gai/ha",0%
same,% activity,"Alopecurus myosuroides; ALOMY, solo topramezone (SC 336 g/l) 6 gai/ha",0%
same,% activity,"Alopecurus myosuroides; ALOMY, solo topramezone (SC 336 g/l) 12 gai/ha",0%
same,% activity,Bromus sterilis; topramezone solo 3 gai/ha,0%
same,% activity,Bromus sterilis; topramezone solo 6 gai/ha,0%
same,% activity,Bromus sterilis; topramezone solo 12 gai/ha,5%
same,% activity,Bromus sterilis; topramezone solo 24 gai/ha,25%
same,% activity,Ambrosia elatior,95%
same,% activity,Setaria viridis,70%

# Source: patent US10966426B2, “Herbicidal compositions comprising phenylpyrimidines” (BASF SE, priority 2016, dated 2021)
